Results on 10 compounds are retold here after ChEMBL document CHEMBL4177563, “The medicinal chemistry of Chikungunya virus” (Bioorg Med Chem, 2017).

Each structure is given as a SMILES string. Values after ≈ are worked out from the molar mass of the structure shown.

Data set [1] concerns Dengue virus. In words: Antiviral activity against Dengue virus infected in human Huh-7 cells assessed as reduction in viral load at 1 uM. It counts as functional.
For data set [2], the system named is Chikungunya virus. In words: Antiviral activity against Chikungunya virus infected in human Huh-7 cells assessed as reduction in viral load at 10 uM. It counts as functional.
The test system of data set [3] is Dengue virus. Put plainly: Antiviral activity against Dengue virus infected in human K562 cells assessed as reduction in viral load at 1 uM. Format: functional.
Data set [4] relates to Chikungunya virus. Put plainly: Antiviral activity against Chikungunya virus infected in African green monkey Vero cells. Format: functional, organism-based.
Data set [5] in a line: Selectivity index, ratio of CC50 for African green monkey Vero cells to EC50 for Chikungunya virus. Format: toxicity. Particulars: read-out: Ratio CC50/EC50.
Data set [6] has as its system Aedes aegypti. In words: Induction of oviposition deterrent activity in Aedes aegypti assessed as effective repellency at 40 ug/ml after 24 hrs by stereomicroscopic analysis relative to control. Format: functional.
Data set [7] has as its system Aedes aegypti. Put plainly: Larvicidal activity against Aedes aegypti Paea assessed as mortality at 10 ug/ml after 24 hrs relative to control. It counts as functional.
The test system of data set [8] is Aedes aegypti. Put plainly: Induction of oviposition deterrent activity in Aedes aegypti assessed as effective repellency at 50 ug/ml after 24 hrs by stereomicroscopic analysis relative to control. Format: functional.
Data set [9] relates to Aedes aegypti. In words: Larvicidal activity against Aedes aegypti Paea assessed as mortality after 24 hrs. It counts as functional, organism-based.
The subject of data set [10] is Aedes aegypti. Put plainly: Induction of oviposition deterrent activity in Aedes aegypti assessed as effective repellency at 30 ug/ml after 24 hrs by stereomicroscopic analysis relative to control. Format: functional.
The test system of data set [11] is Aedes aegypti. Put plainly: Larvicidal activity against Aedes aegypti Paea assessed as mortality at 25 ug/ml after 24 hrs relative to control. Format: functional.
Data set [12] concerns Aedes aegypti. Put plainly: Larvicidal activity against Aedes aegypti Paea assessed as mortality at 20 ug/ml after 24 hrs relative to control. It counts as functional.
For data set [13], the system named is Aedes aegypti. Put plainly: Larvicidal activity against Aedes aegypti Paea assessed as mortality at 15 ug/ml after 24 hrs relative to control. Format: functional.
The test system of data set [14] is Aedes aegypti. Put plainly: Induction of oviposition deterrent activity in Aedes aegypti assessed as effective repellency at 10 ug/ml after 24 hrs by stereomicroscopic analysis relative to control. Format: functional.
Data set [15] concerns Aedes aegypti. Put plainly: Larvicidal activity against Aedes aegypti Paea assessed as mortality at 5 ug/ml after 24 hrs relative to control. Format: functional.
In data set [16] the test system is Aedes aegypti. In words: Induction of oviposition deterrent activity in Aedes aegypti assessed as effective repellency at 20 ug/ml after 24 hrs by stereomicroscopic analysis relative to control. Format: functional.
A short description of data set [17]: Selectivity index, ratio of CC50 for African green monkey Vero cells to IC50 for Chikungunya virus nsP2 protease. Particulars: read-out: Ratio CC50/IC50. It counts as toxicity.
The nature of data set [18]: Selectivity index, ratio of CC50 for BHK-21 cells to EC50 for Chikungunya virus 0810bTw. It counts as toxicity. Particulars: hamster, read-out: Ratio CC50/EC50.
Data set [19] can be described thus: Cytotoxicity against BHK21 cells assessed as reduction in cell viability after 16 hrs by CCK-8 assay. Particulars: hamster, BHK-21 cells. Format: cell-based, Mesocricetus auratus.
Data set [20] can be described thus: Selectivity index, ratio of CC50 for human U2OS cells to EC50 for Chikungunya virus. Format: toxicity. Particulars: read-out: Ratio CC50/EC50.
In data set [21] the test system is Chikungunya virus. Put plainly: Antiviral activity against Chikungunya virus infected in BHK-21 cells by RT-qPCR analysis. It counts as functional, organism-based.
Data set [22] is described as follows: Selectivity index, ratio of CC50 for BHK-21 cells to EC50 for Chikungunya virus 0611aTw. Format: toxicity. Particulars: hamster, read-out: Ratio CC50/EC50.
The subject of data set [23] is Chikungunya virus. In words: Antiviral activity against Chikungunya virus 0810bTw infected in BHK-21 cells by RT-qPCR analysis. Format: functional, organism-based.
Data set [24] is described as follows: Selectivity index, ratio of CC50 for BHK-21 cells to EC50 for Chikungunya virus. Format: toxicity. Particulars: hamster, read-out: Ratio CC50/EC50.
Data set [25] has as its system Chikungunya virus. In words: Antiviral activity against Chikungunya virus 0611aTw infected in BHK-21 cells by RT-qPCR analysis. It counts as functional, organism-based.
Data set [26] has as its system Chikungunya virus. Put plainly: Antiviral activity against Chikungunya virus infected in human U2OS cells by RT-qPCR analysis. It counts as functional, organism-based.
The nature of data set [27]: Cytotoxicity against human U2OS cells assessed as reduction in cell viability after 16 hrs by CCK-8 assay. It counts as cell-based.
Data set [28] has as its system Chikungunya virus. Put plainly: Antiviral activity against Chikungunya virus infected in BHK21 cells assessed as reduction in plague formation at 1 uM after 24 hrs relative to control. It counts as functional. Particulars: BHK-21, 24 h.
Data set [29] in a line: Selectivity index, ratio of CC50 for African green monkey Vero cells to IC50 for Chikungunya virus KC969207. It counts as toxicity. Particulars: read-out: Ratio CC50/IC50.
Data set [30] can be described thus: Cytotoxicity against African green monkey Vero cells assessed as reduction in cell viability after 4 days by MTT assay. Format: cell-based. Particulars: chlorocebus sabaeus.
Data set [31] relates to Chikungunya virus. Put plainly: Antiviral activity against Chikungunya virus C347 infected in African green monkey Vero cells assessed as inhibition of viral-induced cytopathic effect after 2 days by microscopic analysis. It counts as functional, organism-based. Particulars: 48 h.
The test system of data set [32] is Chikungunya virus. In words: Antiviral activity against Chikungunya virus KC969207 infected in African green monkey Vero cells after 48 hrs by MTT dye-based assay. It counts as functional, organism-based.
Data set [33] is described as follows: Selectivity index, ratio of CC50 for African green monkey Vero cells to IC50 for Chikungunya virus DRDE-06. It counts as toxicity. Particulars: read-out: Ratio CC50/IC50.
In data set [34] the test system is Chikungunya virus. In words: Antiviral activity against Chikungunya virus isolate DRDE-06 infected in African green monkey Vero cells by neutral red dye uptake assay. Format: functional, organism-based. Particulars: isolate DRDE-06, Vero.
The nature of data set [35]: Cytotoxicity against African green monkey Vero cells by neutral red dye uptake assay. Format: cell-based. Particulars: chlorocebus sabaeus.
Data set [36] has as its system Chikungunya virus. Put plainly: Antiviral activity against Chikungunya virus 899 infected in African green monkey Vero-A cells assessed as inhibition of viral-induced cytopathic effect measured on day 7 post infection by MTS/PMS assay. It counts as functional, organism-based. Particulars: Chikungunya virus, 899, 168 h.
The nature of data set [37]: Cytotoxicity against BHK21 cells in presence of ATP by Celltiter-Glo assay. It counts as cell-based, Mesocricetus auratus. Particulars: hamster, BHK-21 cells.
A short description of data set [38]: Selectivity index, ratio of CC50 for human Huh7.5 cells to EC50 for Chikungunya virus. Format: toxicity. Particulars: read-out: Ratio CC50/EC50.
In data set [39] the test system is Chikungunya virus. In words: Antiviral activity against Chikungunya virus LR2006-OPY1 infected in human Huh7.5 cells after 48 hrs by luciferase reporter gene assay. It counts as functional, organism-based. Particulars: LR2006-OPY1, Huh7.5, 48 h.
The test system of data set [40] is Chikungunya virus. Put plainly: Antiviral activity against Chikungunya virus at 0.006 to 300 uM by cell based luciferase reporter gene assay relative to control. It counts as functional.
Data set [41] in a line: Selectivity index, ratio of CC50 for BHK21 cells to EC50 for Chikungunya virus. Particulars: hamster, BHK-21 cells; read-out: Ratio CC50/EC50. It counts as toxicity.
A short description of data set [42]: Cytotoxicity against human Huh7.5 cells in presence of ATP by Celltiter-Glo assay. Format: cell-based.
For data set [43], the system named is Chikungunya virus. Put plainly: Antiviral activity against Chikungunya virus LR2006-OPY1 infected in BHK21 cells after 48 hrs by luciferase reporter gene assay. Format: functional, organism-based. Particulars: LR2006-OPY1, BHK-21, 48 h.

Regarding `O=C1c2c(O)ccc([N+](=O)[O-])c2C(=O)c2c([N+](=O)[O-])ccc(O)c21`, the Activity with Dengue virus [1] is given as greater than 1 log10PFU/ml; in the data set on Chikungunya virus [2] it was 1 log10PFU/ml; in the data set with Dengue virus [3], greater than 1 log10PFU/ml.

`C/C(=C\C(=O)O[C@@H]1[C@H](C)C[C@H]2O[C@]1(O)[C@@H](O)[C@H]1CC[C@H](O1)C(C)(C)/C=C/[C@H](C)C2=O)C(C)O` (some centres undefined): the EC50 with Chikungunya virus [4] came to 34 µM. The selectivity ratio in data set [5] was determined as 3.2.

For the compound `CC(C)=CCCC(C)c1ccc(C)cc1` (centres undefined), the Activity with Aedes aegypti [6] is 86%; in the data set with Aedes aegypti [7] it was 45.3%; in the data set with Aedes aegypti [8], 89.99%; in the data set on Aedes aegypti [10] it was 80.87%; with Aedes aegypti [11], 97.1%; in the data set with Aedes aegypti [12] it was 84.2%. Moreover, the Activity in the data set on Aedes aegypti [13] stood at 62.7%; in the data set with Aedes aegypti [14] it was 70.28%; in the data set with Aedes aegypti [15], 24.5%; in the data set on Aedes aegypti [16] it was 75.62%. Also, the IC50 with Aedes aegypti [9] was found to be 11.2 µg/mL (≈ 55.5 µM). In addition, the IC90 in the data set with Aedes aegypti [9] was 22 µg/mL (≈ 109 µM).

For `CCOc1ccc(/C=N/NC(=O)/C=C/Cc2ccc(C(C)(C)C)cc2)cc1OCC`, the selectivity ratio in data set [17] worked out at 32.

As to `O=C(Nc1ccc([N+](=O)[O-])cc1Cl)c1cc(Cl)ccc1O` [NICLOSAMIDE], the selectivity ratio is greater than 22.2 in [18], greater than 55.5 in data set [20], greater than 23.5 in data set [22] and greater than 21 in [24]. Also, the CC50 at 16 h in [19] and in data set [27] was greater than 20 µM each time. In addition, the concentration for a half-maximal effect (EC50) in the data set with Chikungunya virus [21] is 0.95 µM; in the data set with Chikungunya virus [23], 0.9 µM; with Chikungunya virus [25], 0.85 µM; in the data set with Chikungunya virus [26], 0.36 µM.

As for `C[C@H]1O[C@@H](O[C@H]2CC[C@@]3(C)[C@H](CC[C@@H]4[C@@H]3C[C@@H](O)[C@]3(C)[C@@H](C5=CC(=O)OC5)CC[C@]43O)C2)C[C@H](O)[C@@H]1O[C@H]1C[C@H](O)[C@H](O[C@H]2C[C@H](O)[C@H](O[C@@H]3O[C@H](CO)[C@@H](O)[C@H](O)[C@H]3O)[C@@H](C)O2)[C@@H](C)O1` [DESLANOSIDE], the inhibition at 1 µM in the data set with Chikungunya virus [28] stood at 38.7%.

Consider `NC(=O)c1ncn([C@@H]2O[C@H](CO)[C@@H](O)[C@H]2O)n1` [RIBAVIRIN], for which, in data set [29], the selectivity ratio was 529. In data set [30], the CC50 at 96 h amounted to 1620 µM. In addition, the EC50 in the data set with Chikungunya virus [31] was found to be 341 µM. The compound further came in with an IC50 in the data set on Chikungunya virus [32] of 3.06 µM.

With `COc1c(C)c2c(c(O)c1C/C=C(\C)CCC(=O)O)C(=O)OC2` [MYCOPHENOLIC ACID], in [33], the selectivity ratio turned out to be 300. The compound also had an IC50 in the data set on Chikungunya virus [34] of 0.1 µM. In data set [35], this compound yielded a CC50 of 30 µM.

For the compound `NC(=O)c1nccnc1O`, the EC50 with Chikungunya virus [36] was 7 µM.

With `COc1ccc2cc3[n+](cc2c1OC)CCc1cc2c(cc1-3)OCO2` [BERBERINE], the cytotoxic concentration (CC50) in data set [37] and in data set [42] was greater than 100 µM each time. The values for the selectivity ratio in [38] and in data set [41] were greater than 52.6 and greater than 55.6, respectively. Further, the EC50 with Chikungunya virus [39] is 1.9 µM; in the data set with Chikungunya virus [43], 1.8 µM. The compound also yielded an Activity in the data set on Chikungunya virus [40] greater than 85%.
